{
  "source": "patent US20240382564A1",
  "about": "“Methods and Compositions for Treating Muscular Dystrophy and Memory Impairment” (Allysta Pharmaceuticals, Inc., priority 2023, published 2024)",
  "key": {"[1]": {"tested_on": "D2.mdx mice", "experiment": "Functional assays (grip strength, cage hang time, voluntary wheel running) and serum creatine kinase", "format": "in vivo, mouse", "description": "(§1) D2.mdx mice were treated with ALY688 at two different dosages; high dose (HD; 15 mg/kg body weight/day) or low dose (LD; 3 mg/kg body weight/day) dissolved in saline. A separate group of mice were treated with saline alone (VEH, vehicle). Treatment was provided via subscapular subcutaneous injections from 7 days of age to 28-30 days. […] At 28-30 days of age, mice were anaesthetized with isoflurane vaporized in medical air (21% oxygen) at a 2 L/min flow rate. Due to tissue limitations in limb muscle, certain measures were performed separately in tibialis anterior and quadriceps across several phases of breeding. Following the treatment protocol, in situ quadriceps force assessments were then performed in one limb followed by removal of the quadriceps from the other limb for mitochondrial assessments, diaphragm for in vitro force assessments and finally other tissues for further processing as described below. Muscle and visceral organs weights were normalized to tibia length. Tissue collected from the first phase were utilized in force, histological, mitochondrial measures (respiration, mH2O2 and calcium retention capacity) and western analyses (diaphragm and quadriceps only). A second phase was then collected and utilized for cytokine profiling, qPCR analyses and additional westerns (TA only). Serum was collected from both phase 1 and 2 and utilized for serum CK analysis. All animals were utilized in in vivo functional assays (grip strength, cage hang time and voluntary wheel running).\nVoluntary wheel running, cage hang time and forelimb grip strength were assessed two days before sacrifice. Serum derived from cardiac puncture at the time of sacrifice were assessed spectrofluorometrically for creatine kinase activity (U/L)."}, "[2]": {"tested_on": "D2.mdx mice", "experiment": "Western blotting of electron transport chain complex subunits in muscle", "format": "in vivo, mouse", "description": "as §1\nFrozen sections of quadriceps and diaphragm from each muscle (approximately 10-30 mg in size) were homogenized using a plastic microcentrifuge tube with tapered Teflon pestle in ice-cold lysis buffer containing (in mM) (20 Tris/HCl, 150 NaCl, 1 EDTA, 1 EGTA, 1% Triton X-100, 2.5 Na4O7P2, 1 Na3VO4, pH 7.0) supplemented with protease (Sigma) and phosphatase inhibitors (Roche). A 12% gel was used to separate electron transport chain proteins and all other proteins were separated on a 10% gel. Following, all gels were transferred onto 0.2μm low fluorescence PVDF membrane (Bio-Rad, Mississauga, Canada) and blocked with Li-COR Intercept Blocking Buffer (LI-COR, Lincoln NE, USA) for 1 hour. Membranes were then incubated with specific primary antibodies (listed below) overnight at 4° C. A commercially available monoclonal rodent OXPHOS Cocktail (ab110413; Abcam, Cambridge, UK, 1:250 dilution) including V-ATP5A (55 kDa), III-UQCRC2 (48 kDa), IV-MTCO1 (40 kDa), II-SDHB (30 kDa), and I-NDUFB8 (20 kDa) were used to detect electron transport chain proteins. […] Prior to detection, membranes were washed in TBS-T three times for 5 minutes and then imaged using infrared imaging (LI-COR CLx; LI-COR, Lincoln, NE, USA) and quantified by densitometry (ImageJ, http://imagej.nih.gov/ij/). […]"}},
  "note": "Where no end group is shown, it is not given here. [ ]: non-standard residue; d: D form. Nva = CCC[C@H](N)C(=O)O",
  "data": [
    {"substance": "[dN]IP[Nva]LY[dS]FA[dS]-NH2 [ALY688]", "values": [
      {"measurement": "serum creatine kinase", "setting": "[1]; D2.mdx groups", "result": "3.1-to-5.2 fold increase vs WT"},
      {"measurement": "grip strength, cage hang time and voluntary wheel running, comparison between D2.mdx groups", "setting": "[1]; VEH, LD, HD", "result": "similar"},
      {"measurement": "grip strength, cage hang time and voluntary wheel running", "setting": "[1]; all D2.mdx groups", "result": "−15.1% to −91.0"},
      {"measurement": "serum creatine kinase", "setting": "[1]; low dose vs other D2.mdx groups", "result": "increases seen with the low dose"},
      {"measurement": "complex IV content", "setting": "[2]; diaphragm, LD", "result": "−27.0", "unit": "% vs WT"},
      {"measurement": "total sum of electron transport chain complexes", "setting": "[2]; diaphragm, disease state groups", "result": "−13.8 to −19.3", "unit": "% vs WT"},
      {"measurement": "specific subunits of complex III and V", "setting": "[2]; quadriceps and diaphragm, disease state groups (VEH, LD, HD)", "result": "−14.7 to −31.5", "unit": "% vs WT"},
      {"measurement": "total sum of electron transport chain complexes", "setting": "[2]; quadriceps, HD", "result": "−29.1", "unit": "% vs WT"}
    ]}
  ]
}
